In paper PMC9505734, “Design, Synthesis, and Evaluation of a Set of Carboxylic Acid and Phosphate Prodrugs Derived from HBV Capsid Protein Allosteric Modulator NVR 3-778” (Molecules, 2022):
Converted amounts (≈) assume the structure as drawn. Where a name gives a salt, the structure may show the parent alone. Read-outs that look alike come from different tables or passages of the source.

Key:
[1] = test system: HBV replication in Hep38.7-Tet cells; test: In vitro anti-HBV assay: inhibition of HBV replication (HBV DNA in culture supernatant, real-time PCR); assay type: cell-based, Hepatitis B virus; conditions: for EC50: Hepatitis B virus, 144 h, 6 days treatment, read-out: EC50: the concentration of 50% inhibition for HBV DNA in Hep38.7-Tet cells supernatant
Protocol: (§1) The target compounds N5-N8 were evaluated for their antiviral potency against HBV replication, as well as cytotoxicity in Hep38.7-Tet cells, which reproduces HBV replication from a chromosome-integrated HBV transgene under depletion of tetracycline from the medium. The 50% effective concentration (EC50) for anti-HBV activity, 50% cytotoxic concentration (CC50), and selectivity index (SI) calculated by CC50/EC50 ratio are shown in Table 1.
Hep38.7-Tet cells were cultured with DMEM/F-12/GlutaMAX supplemented with 10% fetal bovine serum, and 10 mM HEPES, 200 unit/mL penicillin, 200 µg/mL streptomycin, 5 µg/mL insulin, and 400 ng/mL tetracycline were added at 37 °C in 5% CO2. Tetracycline was removed when inducing HBV replication. Three days after seeding the cells, the cells were treated with or without compounds for 6 days and the culture supernatants were recovered to quantify HBV DNA using the primers 5′-[…]-3′, 5′-[…]-3′, and a probe 5′-FAM-[…]-TAMRA-3′ by real-time fluorescence quantitative PCR, as described.

[2] = Cytotoxicity assay (WST, Cell Counting Kit-8); assay type: cell-based; conditions: human, Hep38.7-Tet cells, WST method (CCK-8); read-out: CC50: the concentration that kills 50% of Hep38.7-Tet cells
Protocol: as §1
(§2) The WST assays were performed by using Cell Counting Kit-8 (CCK-8) (DOJINDO) according to the manufacturer’s protocol. CCK-8 solution was added to the cells, which were incubated at 37 °C for 15 min and the absorbance at 450 nm was measured.

[3] = Water solubility test in phosphate buffers (HPLC); assay type: physicochemical; conditions: for solubility at 1 h: aqueous buffer
Protocol: The compound was dissolved in DMSO to prepare the mother liquor with a concentration of 10 mg/mL, and then 10 µL mother liquor was added to 1 mL phosphate buffer with different pH (pH = 2.0, 7.0, and 7.4). The solution was oscillated for 2 h at 3000 rpm of the vortex oscillator, and the precipitation of compounds was observed visually. The standard curve can be established by increasing the concentration of mother liquor until turbidity appears. The peak area (A) of different concentrations (c) was determined by HPLC. The standard curve was established with the concentration and peak area as abscissa and ordinate, respectively, and the standard curve equation A = kc + b was calculated. The standard curve of NVR 3-778 concentration–peak area was established by measuring the peak area at five concentrations of 1000, 200, 40, 8.0, and 1.6 µg/mL. The standard curve equation was A = 35,268c + 80,359 with R^2 = 0.9999. By measuring the peak area at 4000 µg/mL, 1000 µg/mL, 200 µg/mL, 40 µg/mL, and 8.0 µg/mL, the standard curve of N6 concentration–peak area was established: A = 16,303c + 714,762, R^2 = 0.999. Since the solubility of N6 in phosphate buffer solution (pH = 7.0, 7.4) had exceeded the detector range, the saturated solution of N6 was diluted 10 times for testing. On this basis, the saturated solution (pH = 2.0, 7.0, and 7.4) of phosphate buffer at different pH values was prepared and fully oscillated for 1 h before filtration. Finally, the absorption peak area of the sample at different pH phosphate buffer (pH = 2.0, 7.0, and 7.4) was determined (measured twice). According to the standard curve equation, the corresponding concentration was calculated, which was the solubility of the compound.

Plasma stability at 4 °C = assay type: in vitro ADME; conditions: rat plasma, 2 µM; for Plasma (4 °C) Residual: after 2 h
Protocol: (§3) In order to verify the stability of prodrug in vitro, the stability of NVR 3-778 and prodrug N6 in plasma at 4 °C and whole blood at 37 °C was tested by the LC-MS/MS and characterization of their stability by peak area. […] A total of 1 mL of rat plasma was placed in ice water at 4 °C and 1 mL of rat whole blood was placed in a water bath at 37 °C for use, respectively. DMSO solution with compound concentration of 1 mM was prepared, and then 10 µL compound solution was added to 90 μL 45% methanol aqueous solution to obtain a quantitative solution with a concentration of 100 µM. A 2 µL compound solution was added to 98 µL 4 °C plasma and 37 °C whole blood, and three portions were prepared to reach the final concentration of 2 µM, respectively. After incubation for two hours, 400 µL termination solution was added. The samples were centrifuged at 4000 rpm for 10 min, and the supernatant was extracted. A total of 100 µL supernatant was mixed with 200 µL ultrapure water and fully shaken for 10 min. The absorption peak area (A) of the sample to be tested was determined by HPLC.

[4] = Whole blood stability at 37 °C; assay type: in vitro ADME; conditions: rat whole blood, 2 µM; for Whole Blood (37 °C) Residual: after 2 h
Protocol: as §3

[5] = Pharmacokinetic experiment after oral administration in rats; assay type: in vivo, SD rats; conditions: for MRT last: read-out: MRT0-last
Protocol: In order to explore the metabolism and bioavailability of prodrug in vivo after oral administration, the main pharmacokinetic parameters were tested. After oral administration of N6 and NVR 3-778 to the two groups of rats, we detected their plasma concentration, respectively. […] The experimental results confirmed that N6 had longer half-life and lower maximum concentration in vivo than NVR 3-778. In addition, N6 was completely transformed into NVR 3-778 in vivo, and both had favorable bioavailability. Compared with NVR3-778, N6 can release drugs more slowly, which can improve the narrow therapeutic window of NVR3-778 to some extent.
Six male SD rats were randomly divided into two groups (administered with N6 and NVR 3-778, respectively). The rats were fasted for 12 h before administration and had free access to water. Animal feed was given 4 h after administration. Compounds N6 and NVR 3-778 were both administered orally at a dose of 10 mg/kg. The corresponding doses of compounds were dissolved in DMSO/PEG400/water (3%/60%/37%, V/V/V) mixed solution to prepare compound oral solutions, respectively, which were filtered through the […]. After intragastric administration, blood was obtained by jugular vein puncture (blood point: before administration and 0.25 h, 0.5 h, 1 h, 2 h, 4 h, 6 h, 10 h, and 24 h after administration). Then 0.25 mL whole blood was collected from each rat at each time point, adding EDTA-K2 for anticoagulation. After collection, the plasma was centrifuged within 1 h (centrifugal condition: 8000 rpm, 5 min, 8 °C). Plasma samples were stored in a refrigerator before analysis. After the experiment, all rats were executed according to the regulations of the Experimental Animal Ethics Committee.

Hep38.7-Tet cells = test: Cytotoxicity assay (WST, Cell Counting Kit-8); assay type: cell-based
Protocol: as §1, §2

HepG2.2.15 cell line = conditions: read-out: EC50, antiviral activity; cited from earlier work
[6] = parameters: method as in PMID 35268440; conditions: pH = 2.0 ref 16; cited from earlier work
[7] = male, SD, analyte N6 in plasma after oral N6, 10 mg/kg (18.8 nmol/kg), rat
[8] = male, SD, plasma, 10 mg/kg, analyte NVR 3-778 after oral NVR 3-778, rat

Compound | melting point | SI: selectivity index, the ratio of CC50/EC50 [1] | EC50 [1] | CC50 [2] | solubility at 1 h ([3]; phosphate buffer pH = 2.0) | solubility at 1 h ([3]; phosphate buffer pH = 7.0) | solubility at 1 h ([3]; phosphate buffer pH = 7.4) | Plasma (4 °C) 0 h (peak area) (Plasma stability at 4 °C) | Plasma (4 °C) 2 h (peak area) (Plasma stability at 4 °C) | Plasma (4 °C) Residual (Plasma stability at 4 °C) | Whole Blood (37 °C) 0 h (peak area) [4] | Whole Blood (37 °C) 2 h (peak area) [4] | Whole Blood (37 °C) Residual [4] | other results
O=C(Nc1cc(F)c(F)c(F)c1)c1ccc(F)c(S(=O)(=O)N2CCC(OP(=O)(O)O)CC2)c1 (as salt: phosphate) [N5, 1-((2-Fluoro-5-((3,4,5-trifluorophenyl)carbamoyl)phenyl)sulfonyl)piperidin-4-yl Dihydrogen Phosphate] | 162 to 164 °C | – | – | – | – | – | – | – | – | – | – | – | – | –
O=C(Nc1cc(F)c(F)c(F)c1)c1ccc(F)c(S(=O)(=O)N2CCC(OP(=O)(O)O)CC2)c1 [N5, 1-((2-Fluoro-5-((3,4,5-trifluorophenyl)carbamoyl)phenyl)sulfonyl)piperidin-4-yl Dihydrogen Phosphate] | – | 33 | 420 ± 69 nM | 13700 ± 1450 nM | – | – | – | – | – | – | – | – | – | –
O=C(O)CCC(=O)OC1CCN(S(=O)(=O)c2cc(C(=O)Nc3cc(F)c(F)c(F)c3)ccc2F)CC1 [N6, 4-((1-((2-fluoro-5-((3,4,5-trifluorophenyl)carbamoyl)phenyl)sulfonyl)piperidin-4-yl)oxy)-4-oxobutanoic acid] | 138 to 140 °C | 36 | 350 ± 48 nM | 12600 ± 1050 nM | 695 µg/mL (≈ 1310 µM) | 7500 µg/mL (≈ 14100 µM) | 4420 µg/mL (≈ 8290 µM) | 0.88 ± 0.052 | 0.89 ± 0.016 | 101% | 0.65 ± 0.048 | 0.70 ± 0.026 | 108% | water solubility compared with NVR 3-778 ([3]; pH = 2): more than 180 times; water solubility compared with NVR 3-778 ([3]; pH = 7): > 310 times; water solubility compared with NVR 3-778 ([3]; pH = 7.4): > 900 times; Tlast ([5]; analyte N6 in plasma after oral N6, 10 mg/kg (18.8 nmol/kg), rat): 1.00 h; AUC(0-t) [5, 7]: 8.13 ± 1.5 ng·h/mL; Cmax [5, 7]: 14.7 ± 1.31 ng/mL; Tmax [5, 7]: 0.25 h; MRT last [5, 7]: 0.487 h; time for complete conversion of N6 into NVR 3-778 ([5]; rats, oral N6 10 mg/kg): ≤ 2 h
O=C(O)CCCC(=O)OC1CCN(S(=O)(=O)c2cc(C(=O)Nc3cc(F)c(F)c(F)c3)ccc2F)CC1 [N7, 5-((1-((2-fluoro-5-((3,4,5-trifluorophenyl)carbamoyl)phenyl)sulfonyl)piperidin-4-yl)oxy)-5-oxopentanoic acid] | 135 to 137 °C | 46 | 280 ± 24 nM | 13000 ± 1740 nM | – | – | – | – | – | – | – | – | – | –
O=C(O)CCCCC(=O)OC1CCN(S(=O)(=O)c2cc(C(=O)Nc3cc(F)c(F)c(F)c3)ccc2F)CC1 [N8, 6-((1-((2-fluoro-5-((3,4,5-trifluorophenyl)carbamoyl)phenyl)sulfonyl)piperidin-4-yl)oxy)-6-oxohexanoic acid] | 132 to 134 °C | >731 | 350 ± 32 nM | > 256000 nM | – | – | – | – | – | – | – | – | – | reduction of toxicity compared with NVR 3-778 (Hep38.7-Tet cells; CC50 in Hep38.7-Tet cells): at least 18 fold
O=C(Nc1cc(F)c(F)c(F)c1)c1ccc(F)c(S(=O)(=O)N2CCC(O)CC2)c1 [NVR 3-778, 4-Fluoro-3-((4-hydroxypiperidin-1-yl)sulfonyl)-N-(3,4,5-trifluorophenyl)benzamide] | – | 36 | 380 ± 47 nM | 12600 ± 210 nM | 3.82 µg/mL (≈ 8.83 µM) | 24 µg/mL (≈ 55.6 µM) | 4.84 µg/mL (≈ 11.2 µM) | 0.12 ± 0.0078 | 0.10 ± 0.0066 | 85% | 0.18 ± 0.016 | 0.16 ± 0.0026 | 91% | CC50 (Hep38.7-Tet cells; WST method (CCK-8), read-out: CC50: the concentration that kills 50% of Hep38.7-Tet cells): 13600 ± 210 nM; Tlast ([5]; analyte NVR 3-778 after oral NVR 3-778, 10 mg/kg (23.1 nmol/kg), rat): 10.0 h; AUC(0-inf) [5, 8]: 3940 ± 948 ng·h/mL; AUC(0-t) [5, 8]: 3890 ± 948 ng·h/mL; Cmax [5, 8]: 1160 ± 261 ng/mL; Tmax [5, 8]: 0.833 ± 0.289 h; MRT inf ([5]; male, SD, plasma, 10 mg/kg, analyte NVR 3-778 after oral NVR 3-778, rat, read-out: MRT0-inf): 2.78 ± 0.144 h; MRT last [5, 8]: 2.67 ± 0.106 h; half-life ([5]; male, SD, plasma, analyte NVR 3-778 after oral NVR 3-778, 10 mg/kg (23.1 nmol/kg), rat): 1.4 ± 0.25 h; EC50 (HepG2.2.15 cell line): 400 nM; water solubility [6]: 3 µg/mL (≈ 6.94 µM)
